This note sets out measurements from PubChem BioAssay (NCI).

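Five compound concentrations were applied to cells in 96-well plates for 48 hours; endpoints were derived by simple linear interpolation of the resulting dose-response curve. The concentration for full growth arrest is given as TGI.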

Some test systems named below: DMS 114 small cell lung; DMS 273 small cell lung; XF 498 CNS; DLD-1 colon; RXF-631 renal; SNB-78 CNS.
What all share (assay): NCI tumour cell line growth inhibition, 48 h

Turning to `CC(C)C(=O)CC(c1ccc(Br)cc1)N1N=C(C(C)C)CC1c1ccc(Br)cc1` (configuration not stated), the TGI is above 100 µM in the assay with DMS 114 small cell lung, above 100 µM in the assay on DMS 273 small cell lung and 59 µM in the assay with XF 498 CNS.
With `C=C(CN(C)C)C(=O)c1ccccc1Cl`, the TGI in the assay with DLD-1 colon came out at 36.3 µM; in the assay on DMS 114 small cell lung it was 29.4 µM; in the assay with DMS 273 small cell lung it was 36.8 µM; in the assay with RXF-631 renal it was 37.8 µM; in the assay on SNB-78 CNS, 83.1 µM.
As for `OC1CCSc2ccccc21` (configuration not stated), the TGI with DLD-1 colon, with DMS 114 small cell lung, with DMS 273 small cell lung and with XF 498 CNS was above 100 µM throughout.
